Laboratory results reported in patent publication US12324827B2, “Combination therapy for the treatment of migraines” (The University of Chicago, priority 2019, dated 2025).

How the values were obtained:
[1] = Blood glucose after nose-to-brain (N2B) delivery of IGF-1; assay type: in vivo, Wistar rats; conditions: 1.0-hour after N2B IGF-1 150 μg, n=4/group
[2] = test system: trigeminocervical complex c-fos; experiment: Trigeminocervical c-fos immunostaining after recurrent CSD, nasal IGF-1 with or without intravenous anti-CGRP antibody (Example 5); assay type: in vivo, rat
Experimental: (§1) Migraine will be modeled using recurrent CSD (Grinberg et al., 2019; Won and Kraig 2019a,b; Won and Kraig, 2020). Briefly, the day before recurrent CSD, animals are anesthetized with inhalational isoflurane in oxygen (2-5%) and treated with intranasal IGF-1 (150 μg in 50 μl succinate buffer).
Anesthetized animals are then transferred to a standard stereotaxic head holder under 2-5% isoflurane inhalational anesthesia. Eyes are coated with Artificial Tears and head shaved, cleansed with Betadine, and 0.1 mL of 0.25% Bupivacaine is injected subcutaneously to either side of what will be a left of midline head incision made five minutes later. The underlying skull is scraped free of soft tissue and hemostasis achieved with bone wax. Two 1-2 mm craniotomies are drilled with a Dremel tool at +3 mm anterior to bregma and two mm lateral to the midline (for 0.5M KCl 10-30 nL pressure injections used to initiate CSD. A second craniotomy is placed six mm caudal to bregma and 4.5 mm lateral to the midline (for recording CSD. The surgery area is wiped with Betadine and incision closed with three wound clips. Animals are allowed to awaken and then returned to overnight standard Animal Facility Housing.
(§2) The next day (i.e., 20-24 hours later) animals are again be anesthetized as above with inhalational isoflurane and the left femoral vein cannulated for antibody infusion. Select groups of animals (see below) are treated with intravenous infusion either 1 mg/kg anti-CGRP (ab81887) or isotype IgG2a control in 0.5-0.6 ml normal saline. After infusions, the femoral incision is closed with wound clips.
Animals are stabilized for an hour under anesthesia (1.5% isoflurane in oxygen) after head sutures are removed, eyes coated with Artificial Tears and animals made ready for initiation and recording of CSD under deeper (5%) isoflurane in oxygen, which is then lowered back to 1.5% isoflurane in oxygen during CSD recordings. CSD is initiated as described above one to four hours after antibody infusion. All animals receive nine KCl injections. Then, isoflurane is raised to 5% and animals anesthetized with intraperitoneal ketamine and Xylazine followed quickly by euthanasia via intra-cardiac perfusion with 0.1 mL heparin (1,000 units/ml), then 250 ml of normal saline and finally 250 ml 4% paraformaldehyde in 0.2 M phosphate buffer. […]
2. […] All animals for nasal delivery of IGF-1 plus intravenous treatment (i.e., one ml saline or anti-CGRP antibody) followed by 90 minutes of evoked CSDs) were analyzed for trigeminal cervical complex c-fos immunostaining and trigeminal ganglion malondialdehyde immunostaining as previously described (Won and Kraig, 2020). […]

[3] = test system: trigeminal ganglion malondialdehyde (MDA); experiment: Trigeminal ganglion V1 malondialdehyde immunostaining after recurrent CSD, nasal IGF-1 with or without intravenous anti-CGRP antibody (Example 5); assay type: in vivo, rat
Experimental: as §1, §2
Animals are stabilized for an hour under anesthesia (1.5% isoflurane in oxygen) after head sutures are removed, eyes coated with Artificial Tears and animals made ready for initiation and recording of CSD under deeper (5%) isoflurane in oxygen, which is then lowered back to 1.5% isoflurane in oxygen during CSD recordings. CSD is initiated as described above one to four hours after antibody infusion. All animals receive nine KCl injections. […]
2. […] All animals for nasal delivery of IGF-1 plus intravenous treatment (i.e., one ml saline or anti-CGRP antibody) followed by 90 minutes of evoked CSDs) were analyzed for trigeminal cervical complex c-fos immunostaining and trigeminal ganglion malondialdehyde immunostaining as previously described (Won and Kraig, 2020).
The inventors used a verified method of quantifying immunostaining log-ratios (experimental/sham) as a further means to reduce potential run-to-run variations in immunostaining for malondialdehyde, CGRP and c-fos positive cells (Won and Kraig, 2020). Images of malondialdehyde and CGRP were analyzed in blinded pairs so that they could be converted once decoded to ratios of experimental/sham image integrated optical intensity, a sensitive metric that not only accounts for the area but also the pixel intensity of related image fluorescence.

[4] = test system: blood CGRP; experiment: CGRP plasma assay (ELISA) after recurrent spreading depression; assay type: in vivo, rat
Experimental: Blood was collected via cardiac puncture using a 21 gauge syringe needle and transferred into a BD Vacutainer K3 EDTA blood collection tube (366450, Becton, Dickinson & Co., Franklin Lakes, NJ). Samples were spun 1,500 g×10 min at 4° C. The plasma was transferred to sterile 2.0 mL, screw cap, polypropylene tubes and stored at −80° C. until analysis. Plasma samples were sent to Cayman Chemical Company (Ann Arbor, Michigan) for analysis of CGRP content using ELISA methods. According to the vendor, the detection limit is <10 pg/mL.

IGF-1: human recombinant IGF-1 (#191-G1; R&D Systems), 150 μg in 50 μL sodium succinate buffer, delivered nose-to-brain
blood glucose level [1]: 139 ± 24 mg/dL
reduction in trigeminocervical c-fos activation from recurrent CSD ([2]; counts from −4.5 and 6.0 mm caudal to the obex): 45%
ln ratio (IGF-1/sham) of trigeminocervical c-fos ([2]; nasal IGF-1 alone, original Won and Kraig 2020 data, n=5): −0.56±0.08
ln ratio (IGF-1/sham) of trigeminocervical c-fos ([2]; nasal IGF-1 plus intravenous saline a day later, new data, n=3): −0.548±0.16
ln ratio of trigeminocervical c-fos, combined groups ([2]; nasal IGF-1 with or without subsequent intravenous saline, n=10): −0.547±0.11
ln ratio of trigeminal ganglion MDA immunostaining ([3]; nasal IGF-1 alone, as previously reported (Won and Kraig, 2020), n=5): −1.76±0.29
ln ratio of trigeminal ganglion MDA immunostaining ([3]; nasal IGF-1 plus intravenous saline, n=3): −1.75±0.56
ln ratio of trigeminal ganglion MDA immunostaining, combined groups ([3]; nasal IGF-1 with or without intravenous saline / nasal succinate, n=8): −1.76±0.39
blood (plasma) CGRP level after recurrent SD ([4]; IGF-1 pretreatment, n=6/group, three samples below the detection limit): 7.7 ± 1.6 pg/mL
changes in blood CGRP levels after pretreatment followed by recurrent SD ([4]; IGF-1 versus vehicle): no significant (p=0.347, power=0.136) changes
